# Test results as given in US10633419B2, “Immunomodulators” (BRISTOL-MYERS SQUIBB COMPANY, priority 2014, dated 2020).
# Starred links: 1 amine or outer side, 2 acyl side, 3 side chain; linkers in the order of their positions; H or OH if unused. Positions of bridges follow the written chain, without caps; N, C: chain ends. Non-standard residues stand in square brackets, D forms with d. Residues, ends and D or L forms follow the SMILES beside them. Groups on a side chain read outwards from the residue. *: point of attachment. εLys(α-Octadecanedioyl) = O=C(O)CCCCCCCCCCCCCCCCC(=O)N[C@@H](CCCCN*)C(=O)O; Trp(1-CH2COOH) = N[C@@H](Cc1cn(CC(=O)O)c2ccccc12)C(=O)O; X3 = NC(=O)[C@H](CC(=O)O)NC(=O)CCC(=O)NCCCOCCOCCOCCCN*; Phe(3,4,5-F3) = N[C@@H](Cc1cc(F)c(F)c(F)c1)C(=O)O; γGlu = O=C(O)[C@H](CCC(=O)[*:2])N[*:1]; d(cisHyp) = O=C(O)[C@H]1C[C@@H](O)CN1; NH(CH2)12COOH = O=C(O)CCCCCCCCCCCCN*; Hyp = O=C(O)[C@@H]1C[C@@H](O)CN1; NMeF = CN[C@@H](Cc1ccccc1)C(=O)O; Myristoyl = CCCCCCCCCCCCCC(=O)*; NMeNle = CCCC[C@H](NC)C(=O)O; NMeA = CN[C@@H](C)C(=O)O; Pra = C#CC[C@H](N)C(=O)O; Aun = NCCCCCCCCCCC(=O)O; Dab = NCC[C@H](N)C(=O)O; Dap = NC[C@H](N)C(=O)O
# Target: T1, PD-L1 (Homo sapiens, UniProt Q9NZQ7)
# T1 construct: hPDL1(19-239)-TVMV-His; made in house; host or cells: HEK293T
# T1 sequence (Q9NZQ7 with tags, fused parts or gaps): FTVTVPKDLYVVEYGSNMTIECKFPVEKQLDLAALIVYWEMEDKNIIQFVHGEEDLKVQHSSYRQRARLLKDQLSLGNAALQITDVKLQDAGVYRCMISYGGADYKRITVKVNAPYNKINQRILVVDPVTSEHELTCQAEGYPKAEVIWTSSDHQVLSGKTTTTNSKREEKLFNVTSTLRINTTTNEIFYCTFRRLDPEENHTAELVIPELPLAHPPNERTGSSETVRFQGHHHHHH
# Assay: PD-1/PD-L1 Homogenous Time-Resolved Fluorescence (HTRF) binding assay (PD-1-Ig/PD-L1-His)
# Settings: not given
# Method in brief: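 HTRF competition in dPBS with 0.1% BSA and 0.05% Tween-20: 20 nM PD-1-Ig added after 15 min compound pre-incubation with 10 nM PD-L1-His, then another 15 min. Signal (665/620 nm) after 30 min with APC anti-His (20 nM) and Eu anti-Ig (1 nM).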
row,SMILES,IC50 [µM]
1,CCCC[C@H]1C(=O)N(C)[C@@H](CCCC)C(=O)N[C@@H](CCC(=O)O)C(=O)N[C@H](C(=O)NCC(=O)N[C@@H](Cc2cn(CCOCCOCCOCCOCCOCCOC(=O)CCC(=O)Oc3c(C)c(C)c4c(c3C)CC[C@@](C)(CCC[C@H](C)CCC[C@H](C)CCCC(C)C)O4)nn2)C(=O)NCC(N)=O)CSCC(=O)N[C@@H](Cc2ccc(O)cc2)C(=O)N(C)[C@@H](C)C(=O)N[C@@H](CC(=O)O)C(=O)N2CCC[C@H]2C(=O)N[C@@H](Cc2c[nH]cn2)C(=O)N[C@@H](CCCCN)C(=O)N2C[C@H](O)C[C@H]2C(=O)N[C@@H](Cc2c[nH]c3ccccc23)C(=O)N[C@@H](CCCCN)C(=O)N[C@@H](Cc2c[nH]c3ccccc23)C(=O)N1C [Example 14053],0.1 to 1.6

# Same assay, conditions: inhibition of PD-1-Ig binding to PD-L1-TVMV-His; value given as range class; read-out: HTRF IC50
row,IC50 [µM],SMILES
1,0.01 to 0.099,"C#CC[C@H](NC(=O)CNC(=O)[C@@H]1CSCC(=O)N[C@@H](Cc2cc(F)c(F)c(F)c2)C(=O)N(C)[C@@H](Cc2ccccc2)C(=O)N(C)[C@@H](CCCC)C(=O)N2C[C@H](O)C[C@@H]2C(=O)N[C@@H](CC(=O)O)C(=O)N[C@@H](C(C)C)C(=O)N(C)[C@@H](Cc2ccccc2)C(=O)N[C@@H](CC(=O)O)C(=O)N2CCC[C@@H]2C(=O)N[C@@H](Cc2c[nH]c3ccccc23)C(=O)N[C@@H](Cc2ccc(O)cc2)C(=O)N[C@@H](CC(C)C)C(=O)N1)C(N)=O [INT 1400L, ClAc-F3Phe-mPhe-mNle-dHyp-Asp-Val-mPhe-Asp-dPro-Trp-Tyr-Leu-Cys-Gly-[(S)-propargylglycine]] ({CH2CO}-[Phe(3,4,5-F3)][NMeF][NMeNle][d(cisHyp)]DV[NMeF]D[dP]WYLCG[Pra]-NH2; thioether N-13)"
2,0.0003 to 0.0099,CCCC[C@H]1C(=O)N(C)[C@@H](CCCC)C(=O)N[C@@H](CC(C)C)C(=O)N[C@H](C(=O)NCC(=O)N[C@@H](CC(=O)O)C(=O)NCC(=O)NCCCCCCCCCCC(=O)O)CSCC(=O)N[C@@H](Cc2ccc(O)cc2)C(=O)N(C)[C@@H](C)C(=O)N[C@@H](CC(N)=O)C(=O)N2CCC[C@H]2C(=O)N[C@@H](CN)C(=O)N[C@@H](CC(C)C)C(=O)N2C[C@H](O)C[C@H]2C(=O)N[C@@H](Cc2c[nH]c3ccccc23)C(=O)N[C@@H](CCN)C(=O)N[C@@H](Cc2cn(CC(=O)O)c3ccccc23)C(=O)N1C [Example 11099] ({CH2CO}-Y[NMeA]NP[Dap]L[Hyp]W[Dab][Trp(1-CH2COOH)][NMeNle][NMeNle]LCGDG[Aun]-OH; thioether N-14)
3,0.01 to 0.099,CCCC[C@H]1C(=O)N(C)[C@@H](CCCC)C(=O)N[C@@H](CC(C)C)C(=O)N[C@H](C(=O)NCC(=O)N[C@@H](CC(=O)NCCCC[C@H](NC(=O)CCCCCCCCCCCCCCCCC(=O)O)C(=O)O)C(=O)O)CSCC(=O)N[C@@H](Cc2ccc(O)cc2)C(=O)N(C)[C@@H](C)C(=O)N[C@@H](CC(N)=O)C(=O)N2CCC[C@H]2C(=O)N[C@@H](CN)C(=O)N[C@@H](CC(C)C)C(=O)N2C[C@H](O)C[C@H]2C(=O)N[C@@H](Cc2c[nH]c3ccccc23)C(=O)N[C@@H](CCN)C(=O)N[C@@H](Cc2cn(CC(=O)O)c3ccccc23)C(=O)N1C [Example 11176] ({CH2CO}-Y[NMeA]NP[Dap]L[Hyp]W[Dab][Trp(1-CH2COOH)][NMeNle][NMeNle]LCGD(εLys(α-Octadecanedioyl))-OH; thioether N-14)
4,0.01 to 0.099,CCCCCCCCCCCCCCCC(=O)N[C@@H](CCn1cc(C[C@H](NC(=O)CNC(=O)[C@@H]2CSCC(=O)N[C@@H](Cc3ccc(O)cc3)C(=O)N(C)[C@@H](C)C(=O)N[C@@H](CC(=O)O)C(=O)N3CCC[C@H]3C(=O)N[C@@H](Cc3c[nH]cn3)C(=O)N[C@@H](CCCCN)C(=O)N3C[C@H](O)C[C@H]3C(=O)N[C@@H](Cc3c[nH]c4ccccc34)C(=O)N[C@@H](CCCCN)C(=O)N[C@@H](Cc3c[nH]c4ccccc34)C(=O)N(C)[C@@H](CCCC)C(=O)N(C)[C@@H](CCCC)C(=O)N[C@@H](CCC(=O)O)C(=O)N2)C(=O)NCC(N)=O)nn1)C(=O)O [Example 14059]
5,0.01 to 0.099,CCCC[C@H]1C(=O)N(C)[C@@H](CCCC)C(=O)N[C@@H](CC(C)C)C(=O)N[C@H](C(=O)NCC(=O)N[C@@H](Cc2cn(CC[C@H](NC(=O)CCCCCCCCCCCCCCCCC(=O)O)C(=O)O)nn2)C(=O)O)CSCC(=O)N[C@@H](Cc2ccc(F)cc2)C(=O)N2CCCC[C@H]2C(=O)N[C@@H](CC(=O)O)C(=O)N2CCC[C@H]2C(=O)N[C@@H](CN)C(=O)N[C@@H](CC(C)C)C(=O)N2C[C@H](O)C[C@H]2C(=O)N[C@@H](Cc2c[nH]c3ccccc23)C(=O)N[C@@H](CCN)C(=O)N[C@@H](Cc2cn(CC(=O)O)c3ccccc23)C(=O)N1C [Example 14122]
6,0.01 to 0.099,CCCC[C@H]1C(=O)N(C)[C@@H](CCCC)C(=O)N[C@@H](CC(C)C)C(=O)N[C@H](C(=O)NCC(=O)NCCCCCCCCCCC(=O)O)CSCC(=O)N[C@@H](Cc2ccc(O)cc2)C(=O)N(C)[C@@H](C)C(=O)N[C@@H](CC(N)=O)C(=O)N2CCC[C@H]2C(=O)N[C@@H](CO)C(=O)N[C@@H](CCC(N)=O)C(=O)N2C[C@H](O)C[C@H]2C(=O)N[C@@H](Cc2c[nH]c3ccccc23)C(=O)N[C@@H](CO)C(=O)N[C@@H](Cc2cn(CC(=O)O)c3ccccc23)C(=O)N1C [Example 11084] ({CH2CO}-Y[NMeA]NPSQ[Hyp]WS[Trp(1-CH2COOH)][NMeNle][NMeNle]LCG[Aun]-OH; thioether N-14)
7,0.01 to 0.099,CCCC[C@H]1C(=O)N(C)[C@@H](CCCC)C(=O)N[C@@H](CC(C)C)C(=O)N[C@H](C(=O)NCCCOCCOCCOCCCNC(=O)CCC(=O)N[C@@H](CC(=O)O)C(N)=O)CSCC(=O)N[C@@H](Cc2ccc(O)cc2)C(=O)N(C)[C@@H](C)C(=O)N[C@@H](CC(N)=O)C(=O)N2CCC[C@H]2C(=O)N[C@@H](Cc2cnc[nH]2)C(=O)N[C@@H](CCC(=O)O)C(=O)N2C[C@H](O)C[C@H]2C(=O)N[C@@H](Cc2c[nH]c3ccccc23)C(=O)N[C@@H](CCN)C(=O)N[C@@H](Cc2cn(CC(=O)O)c3ccccc23)C(=O)N1C [Example 11067] ({CH2CO}-Y[NMeA]NPHE[Hyp]W[Dab][Trp(1-CH2COOH)][NMeNle][NMeNle]LC-X3; thioether N-14)
8,0.01 to 0.099,CCCC[C@H]1C(=O)N(C)[C@@H](CCCC)C(=O)N[C@@H](CC(C)C)C(=O)N[C@H](C(=O)NCC(=O)NCC(=O)N[C@@H](CC(=O)O)C(=O)NCCCCCCCCCCCCC(=O)O)CSCC(=O)N[C@@H](Cc2ccc(O)cc2)C(=O)N(C)[C@@H](C)C(=O)N[C@@H](CC(=O)O)C(=O)N2CCC[C@H]2C(=O)N[C@@H](Cc2cnc[nH]2)C(=O)N[C@@H](CCCCN)C(=O)N2C[C@H](O)C[C@H]2C(=O)N[C@@H](Cc2c[nH]c3ccccc23)C(=O)N[C@@H](CCCCN)C(=O)N[C@@H](Cc2cn(CC(=O)O)c3ccccc23)C(=O)N1C [Example 11220] ({CH2CO}-Y[NMeA]DPHK[Hyp]WK[Trp(1-CH2COOH)][NMeNle][NMeNle]LCGGD-{NH(CH2)12COOH}; thioether N-14)
9,0.01 to 0.099,CCCCCCCCCCCCCC(=O)N[C@@H](CCC(=O)NCCCC[C@H](NC(=O)[C@H](CC(=O)O)NC(=O)CNC(=O)CNC(=O)[C@@H]1CSCC(=O)N[C@@H](Cc2ccc(O)cc2)C(=O)N(C)[C@@H](C)C(=O)N[C@@H](CC(=O)O)C(=O)N2CCC[C@H]2C(=O)N[C@@H](Cc2cnc[nH]2)C(=O)N[C@@H](CC(C)C)C(=O)N2C[C@H](O)C[C@H]2C(=O)N[C@@H](Cc2c[nH]c3ccccc23)C(=O)N[C@@H](CO)C(=O)N[C@@H](Cc2c[nH]c3ccccc23)C(=O)N(C)[C@@H](CCCC)C(=O)N(C)[C@@H](CCCC)C(=O)N[C@@H](CCCNC(=N)N)C(=O)N1)C(N)=O)C(=O)O [Example 11123] ({CH2CO}-Y[NMeA]DPHL[Hyp]WSW[NMeNle][NMeNle]RCGGDK([γGlu-Myristoyl])-NH2; thioether N-14)
